Results reported in patent US20170233413A1, “SUBSTITUTED ANNULATED PYRIMIDINES AND USE THEREOF” (Bayer Pharma Aktiengesellschaft, priority 2014, published 2017).

Experiments:
[1] = biological target: T1, recombinant guanylate cyclase reporter cell line (Rattus norvegicus, UniProt P19686+P20595); assay: Effect on a recombinant guanylate cyclase reporter cell line; format: cell-based; details: MEC = minimum effective concentration; in some cases means of individual determinations
T1 construct: expressed in transfected cells
T1 sequence (P19686 1-690): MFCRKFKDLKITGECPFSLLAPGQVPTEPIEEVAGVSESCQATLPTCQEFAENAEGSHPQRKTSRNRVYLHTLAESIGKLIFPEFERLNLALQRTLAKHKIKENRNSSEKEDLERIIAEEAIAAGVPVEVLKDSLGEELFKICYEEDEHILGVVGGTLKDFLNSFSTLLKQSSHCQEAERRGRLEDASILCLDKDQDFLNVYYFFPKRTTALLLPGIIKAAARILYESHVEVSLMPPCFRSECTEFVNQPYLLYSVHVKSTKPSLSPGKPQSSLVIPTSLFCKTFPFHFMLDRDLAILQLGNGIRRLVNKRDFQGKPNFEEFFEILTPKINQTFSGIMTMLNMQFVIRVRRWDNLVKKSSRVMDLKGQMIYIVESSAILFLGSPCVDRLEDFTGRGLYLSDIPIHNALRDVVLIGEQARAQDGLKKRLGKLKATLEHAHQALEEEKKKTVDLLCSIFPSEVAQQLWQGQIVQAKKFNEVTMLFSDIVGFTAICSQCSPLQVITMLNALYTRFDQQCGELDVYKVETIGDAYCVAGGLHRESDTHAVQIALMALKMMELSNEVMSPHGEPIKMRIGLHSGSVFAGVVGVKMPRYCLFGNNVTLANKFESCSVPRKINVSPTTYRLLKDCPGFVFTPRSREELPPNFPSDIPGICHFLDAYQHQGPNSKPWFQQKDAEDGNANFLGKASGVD
T1 sequence (P20595 1-619): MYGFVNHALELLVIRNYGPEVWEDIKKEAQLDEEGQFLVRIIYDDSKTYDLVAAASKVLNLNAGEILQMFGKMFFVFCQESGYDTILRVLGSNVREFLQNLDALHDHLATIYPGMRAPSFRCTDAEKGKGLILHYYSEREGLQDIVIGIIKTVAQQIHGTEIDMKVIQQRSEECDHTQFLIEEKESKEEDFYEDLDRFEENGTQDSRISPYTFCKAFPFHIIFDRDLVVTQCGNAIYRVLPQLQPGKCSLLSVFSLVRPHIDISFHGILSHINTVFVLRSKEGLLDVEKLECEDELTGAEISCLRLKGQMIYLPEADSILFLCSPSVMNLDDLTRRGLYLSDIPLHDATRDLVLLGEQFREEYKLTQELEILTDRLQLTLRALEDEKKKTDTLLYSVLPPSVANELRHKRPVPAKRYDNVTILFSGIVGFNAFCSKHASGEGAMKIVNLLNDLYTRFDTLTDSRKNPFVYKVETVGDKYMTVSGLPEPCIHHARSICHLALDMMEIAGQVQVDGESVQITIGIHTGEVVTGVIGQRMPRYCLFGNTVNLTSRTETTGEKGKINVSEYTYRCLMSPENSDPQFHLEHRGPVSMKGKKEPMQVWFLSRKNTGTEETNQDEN
Procedure, shortened: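 Values are reported as MEC, sometimes averaged over individual determinations. The test system is a reporter cell line expressing recombinant rat guanylate cyclase.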

[2] = biological target: T2, human phosphodiesterase 5 (PDE 5) (Homo sapiens, UniProt O76074); assay: Inhibition of human phosphodiesterase 5 (PDE 5); format: biochemical; details: PDE 5 preparation from human platelets; in some cases means of individual determinations
T2 construct: PDE 5 preparations are obtained from human platelets by disruption; from tissue; host or cells: human platelets
Procedure, shortened: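 IC50 comes from percent inhibition over a 1:3 series with final levels of 4 to 0.0018 μM. Reaction: tritiated cGMP tracer (0.025 μCi) with platelet-derived, Mono Q-purified enzyme, 1 h at room temperature in Tris pH 7.5, under 70% turnover. Read-out by scintillation proximity beads.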

Question: How did the MEC [1] turn out when `CC(C)CCNC(=O)c1nc(-c2nn(Cc3ccccc3F)c3ncccc23)nc2c1C(C)(C)C(=O)N2` [Example 132, 2-[1-(2-fluorobenzyl)-1H-pyrazolo[3,4-b]pyridin-3-yl]-5,5-dimethyl-N-(3-methylbutyl)-6-oxo-6,7-dihydro-5H-pyrrolo[2,3-d]pyrimidine-4-carboxamide] was run?
Answer: 0.3 µM

Question: What about the IC50 [2] of the same molecule?
Answer: 33 nM

Question: Which MEC [1] does the source give for `CC[C@H](C)NC(=O)c1nc(-c2nn(Cc3ccccc3F)c3ncccc23)nc2c1C(C)(C)C(=O)N2` [Example 134, N-[(2S)-butan-2-yl]-2-[1-(2-fluorobenzyl)-1H-pyrazolo[3,4-b]pyridin-3-yl]-5,5-dimethyl-6-oxo-6,7-dihydro-5H-pyrrolo[2,3-d]pyrimidine-4-carboxamide] here?
Answer: 0.3 µM

Question: What about the IC50 [2] of the same molecule?
Answer: 13 nM

Question: Which MEC [1] does the source give for `CC1(C)C(=O)Nc2nc(-c3nn(Cc4ccccc4F)c4ncccc34)nc(C(=O)NCC3(O)CC3)c21` [Example 138, 2-[1-(2-fluorobenzyl)-1H-pyrazolo[3,4-b]pyridin-3-yl]-N-[(1-hydroxycyclopropyl)methyl]-5,5-dimethyl-6-oxo-6,7-dihydro-5H-pyrrolo[2,3-d]pyrimidine-4-carboxamide] here?
Answer: 1 µM

Question: What about the IC50 [2] of the same molecule?
Answer: 21 nM
